This is an account of results in patent US10899754B2, “Modulators of indoleamine 2,3-dioxygenase” (GLAXOSMITHKLINE INTELLECTUAL PROPERTY DEVELOPMENT LIMITED, priority 2016, dated 2021).

What all share (type): cell-based
Data set [1] deals with T1, indoleamine 2, 3-dioxygenase (IDO1) (Homo sapiens, UniProt P14902). Description: IDO1 PBMC RapidFire MS assay (kynurenine detection by mass spectrometry). As to conditions: human PBMC stimulated with IFN-γ and LPS, 2 days, pIC50, read-out: PBMC PXC50 (converted). Details: to induce the expression of indoleamine 2, 3-dioxygenase (IDO1); host or cells: human PBMC stimulated with IFN-gamma and LPS. The essentials: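 PBMCs (50,000 cells/well) stimulated with IFN-γ 100 ng/ml plus LPS 50 ng/ml, treated with 11-point 3-fold compound series for 2 days at 37° C. Supernatant kynurenine measured by RapidFire MS, normalised to internal standard; parallel cytotoxicity by CellTiter-Glo luminescence; curves fitted for XC50.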
T1 sequence (P14902 whole entry): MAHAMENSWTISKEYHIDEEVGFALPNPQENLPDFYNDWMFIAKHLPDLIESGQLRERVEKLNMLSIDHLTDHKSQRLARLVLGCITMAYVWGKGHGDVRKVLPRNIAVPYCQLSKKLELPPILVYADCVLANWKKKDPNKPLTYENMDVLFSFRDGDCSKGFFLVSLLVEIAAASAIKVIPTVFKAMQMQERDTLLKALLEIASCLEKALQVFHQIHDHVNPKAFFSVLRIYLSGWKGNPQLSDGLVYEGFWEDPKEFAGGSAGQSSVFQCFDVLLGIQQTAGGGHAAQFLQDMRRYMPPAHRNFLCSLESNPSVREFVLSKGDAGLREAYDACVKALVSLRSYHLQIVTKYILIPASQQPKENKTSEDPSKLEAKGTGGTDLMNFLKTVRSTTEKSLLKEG

Data set [2] concerns human epithelial HeLa cells. Description: HeLa cytotoxicity assay (CellTiter-Glo). As to conditions: pCC50. The essentials: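 HeLa cells (5,000/well) stimulated with 10 nM IFN-γ, exposed to 11-point 3-fold compound dilutions for 2 days at 37 °C; viability by CellTiter-Glo ATP luminescence. Normalized to cell-free (100% cytotoxicity) and stimulated-cell DMSO (0%) controls; four-parameter fit gives pCC50.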
In general terms: In ATP-based viability assays light output follows the ATP content of the culture.

Data set [3] has as its target T1, indoleamine 2, 3-dioxygenase (IDO1). Description: IDO1 HeLa RapidFire MS assay (kynurenine detection by mass spectrometry). Details: to induce the expression of indoleamine 2, 3-dioxygenase (IDO1). As to conditions: HeLa cells, pIC50, read-out: IDO1_HELA_PXC50 (converted). The essentials:
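Compound potency reported as pIC50 from kynurenine/internal-standard ratio (RapidFire MS) in supernatant of IFN-γ-induced (10 nM) HeLa cells, 5,000 per well, after 2 days' treatment with 11-point dilutions. Cytotoxicity in the same format by luminescent ATP detection, reported as pCC50.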

In data set [4] the test system is human peripheral blood mononuclear cells (PBMC). Description: PBMC cytotoxicity assay (CellTiter-Glo). As to conditions: 2 days, pCC50. The essentials: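 Human PBMC (50,000 cells/well) stimulated with IFN-γ 100 ng/ml and LPS 50 ng/ml were exposed to 11-point 3-fold compound dilutions for 2 days at 37 °C, 5% CO2. Viability read by CellTiter-Glo ATP luminescence and normalized to no-cell and stimulated-DMSO controls. XC50 derived by four-parameter fit.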

Take `CC(C)CN(c1ccc(C2CC2C(=O)O)cc1Nc1nc(C(F)(F)F)ns1)C1CCCCC1` (single isomer, unassigned) [Example 104, 2-(4-(cyclohexyl(isobutyl)amino)-3-((3-(trifluoromethyl)-1,2,4-thiadiazol-5-yl)amino)phenyl)cyclopropanecarboxylic Acid]: the IC50 in data set [1] was 2.51 nM; in data set [3], 3.16 nM. In data set [2], this compound displayed an HELA_IDO1_TOX_PXC50 below 5. Moreover, in data set [4], the “PBMC TOX PXC50” value was below 5.

Consider `CC(C)CN(c1ccc(C(C)CC(=O)O)cc1NC1=NC(=O)[C@H](c2ccccc2)N1)C1CCCCC1` (stereo partly drawn) [example 165, 3-{4-[cyclohexyl(2-methylpropyl)amino]-3-{[(5S)-4-oxo-5-phenyl-4,5-dihydro-1H-imidazol-2-yl]amino}phenyl}butanoic acid], for which the results for the IC50 in data set [1] and in data set [3] were 1580 nM and 794 nM, respectively. This compound also returned an HELA_IDO1_TOX_PXC50 in data set [2] below 5. In data set [4], the “PBMC TOX PXC50” value is recorded as below 5.

`COc1ccc2[nH]c(Nc3cc(-c4ccccc4C(=O)O)ccc3N(CC(C)C)C3CCCCC3)nc2c1` [example 287, 4′-[cyclohexyl(2-methylpropyl)amino]-3′-[(5-methoxy-1H-1,3-benzodiazol-2-yl)amino]-[1,1′-biphenyl]-2-carboxylic acid]: the IC50 in data set [1] and in data set [3] was 7.94 nM throughout. Further, the HELA_IDO1_TOX_PXC50 in data set [2] was below 5. For the same compound, the “PBMC TOX PXC50” value in data set [4] was below 5.

On to `CC(C)CN(c1ccc(C(C)OCC(=O)O)cc1Nc1nc(Cl)ns1)C1CCCCC1` (centres unmarked) [example 171, 2-(1-{3-[(3-chloro-1,2,4-thiadiazol-5-yl)amino]-4-[cyclohexyl(2-methylpropyl)amino]phenyl}ethoxy)acetic acid], for which the IC50 was 25.1 nM in data set [1] and 158 nM in data set [3]. The same compound gave an HELA_IDO1_TOX_PXC50 in data set [2] below 5. Moreover, in data set [4], the “PBMC TOX PXC50” value was below 5.

For the compound `CC(C)CN(c1ccc([C@H](C)CC(=O)O)cc1Nc1ccc(Cl)cn1)C1CCCCC1` [Example 75, (R)-3-(3-((5-chloropyridin-2-yl)amino)-4-(cyclohexyl(isobutyl)amino)phenyl)butanoic Acid], the IC50 was 1.58 nM in data set [1] and 3.16 nM in data set [3]. This compound also returned an HELA_IDO1_TOX_PXC50 in data set [2] below 5. The “PBMC TOX PXC50” value in data set [4] was below 5.

Turning to `CC(C)CN(c1ccc([C@H](C)CC(=O)O)cc1Nc1nc(C2CC2)cs1)C1CCOCC1` [example 211, (3R)-3-{3-[(4-cyclopropyl-1,3-thiazol-2-yl)amino]-4-[(2-methylpropyl)(oxan-4-yl)amino]phenyl}butanoic acid], the IC50 in data set [1] was 20 nM; in data set [3], 25.1 nM. In data set [2], this compound returned an HELA_IDO1_TOX_PXC50 below 5. Besides, the “PBMC TOX PXC50” value in data set [4] is on record as below 5.

On to `CC(C)CN(CC(C)C)c1ccc(C(C)CC(=O)O)cc1Nc1nnn[nH]1` (centres unmarked) [example 168, 3-{4-[bis(2-methylpropyl)amino]-3-[(1H-1,2,3,4-tetrazol-5-yl)amino]phenyl}butanoic acid], for which the IC50 in data set [1] and in data set [3] was above 10000 nM in each case. Besides, in data set [2], the HELA_IDO1_TOX_PXC50 was below 5. In addition, in data set [4], the “PBMC TOX PXC50” value is listed as below 5.

`CC(C)CN(c1ccc([C@H](C)CC(=O)O)cc1Nc1cccc(Cl)n1)C1CCCCC1` [example 169, (3R)-3-{3-[(6-chloropyridin-2-yl)amino]-4-[cyclohexyl(2-methylpropyl)amino]phenyl}butanoic acid]: the IC50 in data set [1] was 7.94 nM; in data set [3], 25.1 nM. The HELA_IDO1_TOX_PXC50 in data set [2] is listed as below 5. Besides, in data set [4], the “PBMC TOX PXC50” value was below 5.

As for `CC(C)CN(c1ccc(C(C)CC(=O)O)cc1NC1=NC(=O)[C@H](C)N1)C1CCCCC1` (stereo partly drawn) [example 164, 3-{4-[cyclohexyl(2-methylpropyl)amino]-3-{[(5S)-5-methyl-4-oxo-4,5-dihydro-1H-imidazol-2-yl]amino}phenyl}butanoic acid], the IC50 was 316 nM in data set [1] and 631 nM in data set [3]. In data set [2], the HELA_IDO1_TOX_PXC50 is below 5. Further, in data set [4], the “PBMC TOX PXC50” value was below 5.

Regarding `CC(C)CN(CC(C)C)c1ccc([C@H](C)CC(=O)O)cc1Nc1nnc(C(F)(F)F)s1` [Example 87, (R)-3-(4-(diisobutylamino)-3-((5-(trifluoromethyl)-1,3,4-thiadiazol-2-yl)amino)phenyl)butanoic Acid], the IC50 in data set [1] is 3.98 nM; in data set [3], 7.94 nM. In data set [2], this compound registered an HELA_IDO1_TOX_PXC50 below 5. For the same compound, the “PBMC TOX PXC50” value in data set [4] was below 5.

As for `CC(C)CN(c1ccc(C(C)CC(=O)O)cc1NC1=NC(=O)[C@@H](C)N1)C1CCCCC1` (stereo partly drawn) [example 163, 3-{4-[cyclohexyl(2-methylpropyl)amino]-3-{[(5R)-5-methyl-4-oxo-4,5-dihydro-1H-imidazol-2-yl]amino}phenyl}butanoic acid], the IC50 in data set [1] is 3160 nM; in data set [3], 2000 nM. The HELA_IDO1_TOX_PXC50 in data set [2] is given as below 5. In addition, in data set [4], the “PBMC TOX PXC50” value was below 5.

As for `CC[C@H](CC(=O)O)c1ccc(N(CC(C)C)C2CCCCC2)c(Nc2nc(Cl)ns2)c1` [Example 42], the IC50 is 0.501 nM in data set [1] and 5.01 nM in data set [3]. In addition, the HELA_IDO1_TOX_PXC50 in data set [2] is listed as below 5. Moreover, in data set [4], the “PBMC TOX PXC50” value is given as below 5.

As for `CC(C)CN(CC(C)C)c1ccc(-c2ccccc2C(=O)O)cc1Nc1nc(Cl)ns1` [example 294, 4′-[bis(2-methylpropyl)amino]-3′-[(3-chloro-1,2,4-thiadiazol-5-yl)amino]-[1,1′-biphenyl]-2-carboxylic acid], the IC50 in data set [1] was 20 nM; in data set [3], 39.8 nM. This compound also gave an HELA_IDO1_TOX_PXC50 in data set [2] below 5. Besides, the “PBMC TOX PXC50” value in data set [4] is on record as below 5.

As to `CC(C)CN(c1ccc(-c2ccccc2C(=O)O)cc1Nc1nc(C(F)(F)F)ns1)[C@H]1CC[C@H](O)CC1` [Example 112, 4′-(((1r,4r)-4-hydroxycyclohexyl) (isobutyl)amino)-3′-((3-(trifluoromethyl)-1,2,4-thiadiazol-5-yl)amino)-[1,1′-biphenyl]-2-carboxylic Acid], the values for the IC50 in data set [1] and in data set [3] were 7.94 nM and 15.8 nM, respectively. This compound also returned an HELA_IDO1_TOX_PXC50 in data set [2] below 5. The “PBMC TOX PXC50” value in data set [4] stood at 6.1.

For `CC(C)CN(c1ccc([C@H](C)CC(=O)O)cc1Nc1nc(C(F)(F)F)cs1)C1CCOCC1` [Example 22, (R)-3-(4-(Isobutyl(tetrahydro-2H-pyran-4-yl)amino)-3-((4-(trifluoromethyl)thiazol-2-yl)amino)phenyl)butanoic Acid], the IC50 in data set [1] and in data set [3] was 2.51 nM throughout. Besides, the HELA_IDO1_TOX_PXC50 in data set [2] is given as below 5. The “PBMC TOX PXC50” value in data set [4] was below 5.

`CO[C@H]1CC[C@@H](N(CC(C)C)c2ccc([C@H](C)CC(=O)O)cc2Nc2n[nH]c(Cl)n2)CC1` [Example 61, (R)-3-(3-((5-chloro-1H-1,2,4-triazol-3-yl)amino)-4-(isobutyl((cis)-4-methoxycyclohexyl)amino)phenyl)butanoic Acid]: the IC50 in data set [1] was 2 nM; in data set [3] it was 6.31 nM. The same compound came in with an HELA_IDO1_TOX_PXC50 in data set [2] below 5. The “PBMC TOX PXC50” value in data set [4] was below 5.

For `CC(C)CN(c1ccc(C(C)OCC(=O)O)cc1Nc1nc2ccccc2o1)C1CCCCC1` (centres unmarked) [example 170, 2-(1-{3-[(1,3-benzoxazol-2-yl)amino]-4-[cyclohexyl(2-methylpropyl)amino]phenyl}ethoxy)acetic acid], the values for the IC50 in data set [1] and in data set [3] were 316 nM and 501 nM, respectively. This compound also came in with an HELA_IDO1_TOX_PXC50 in data set [2] below 5. The “PBMC TOX PXC50” value in data set [4] was below 5.

Regarding `CC(C)CN(c1ccc([C@H](C)CC(=O)O)cc1Nc1nc(C2CC2)ns1)C1CCOCC1` [Example 28, (R)-3-(3-((3-cyclopropyl-1,2,4-thiadiazol-5-yl)amino)-4-(isobutyl(tetrahydro-2H-pyran-4-yl)amino)phenyl)butanoic Acid], the IC50 is 5.01 nM in data set [1] and 6.31 nM in data set [3]. The same compound displayed an HELA_IDO1_TOX_PXC50 in data set [2] below 5. Also, the “PBMC TOX PXC50” value in data set [4] is listed as below 5.

As to `CC(C)CN(CC(C)C)c1ccc(C(C)CC(=O)O)cc1Nc1ncccn1` (centres unmarked) [example 156, 3-{4-[bis(2-methylpropyl)amino]-3-[(pyrimidin-2-yl)amino]phenyl}butanoic acid], the results for the IC50 in data set [1] and in data set [3] were 7940 nM and above 10000 nM, respectively. In data set [2], this compound had an HELA_IDO1_TOX_PXC50 below 5. In addition, the “PBMC TOX PXC50” value in data set [4] is below 5.

For the compound `COc1ncc(Nc2cc([C@H](C)CC(=O)O)ccc2N(CC(C)C)C2CCOCC2)cn1` [Example 15, (R)-3-(4-(isobutyl(tetrahydro-2H-pyran-4-yl)amino)-3-((2-methoxypyrimidin-5-yl)amino)phenyl)butanoic Acid], the IC50 is 3.16 nM in data set [1] and 7.94 nM in data set [3]. The same compound registered an HELA_IDO1_TOX_PXC50 in data set [2] below 5. In data set [4], the “PBMC TOX PXC50” value was below 5.
